Source: patent USRE40086E1, “Method for treating bacterial infection with novel 7-substituted-9-substituted amino 6-demethyl-6-deoxytetracyclines” (Wyeth Holdings Corporation, priority 1991, dated 2008)
Where a name gives a salt, the structure may show the parent alone. Read-outs that look alike come from different tables or passages of the source.

Legend:
[1] = test system: S. aureus UBMS 90-1 (tetM); assay: MIC, agar dilution; type: cell-based; conditions: for MIC: S. aureus UBMS 90-1 (tetM)
[2] = test system: S. aureus UBMS 90-2; assay: In vivo antibacterial evaluation, acute lethal infection in mice; conditions: Staphylococcus aureus, UBMS902, sc, read-out: ED50, median effective dose protecting 50% of the infected mice; mice infected with S. aureus UBMS 90-2 (tetM), single subcutaneous dosing
Text: (§1) In Vivo Antibacterial Evaluation (Table VII)

[3] = test system: S. aureus UBMS 90-1; assay: as above; conditions: Staphylococcus aureus, UBMS901, sc, read-out: ED50, median effective dose protecting 50% of the infected mice; mice infected with S. aureus UBMS 90-1 (tetM), single subcutaneous dosing
Text: as §1

[4] = test system: Citrobacter freundii; assay: MIC vs recent clinical and agricultural isolates (Table V, KK); type: cell-based; conditions: [10] tested
[5] = test system: Haemophilus influenzae; assay: as above; type: cell-based; conditions: [15] tested
[6] = test system: Escherichia coli; assay: MIC against clinical isolates (Table V, A and O); type: cell-based; conditions: Escherichia coli clinical isolates, (10) tested
[7] = test system: Shigella spp.; type: cell-based; conditions: [14] tested
[8] = test system: Enterococcus faecium; assay: MIC vs recent clinical and agricultural isolates (Table V, KK); type: cell-based; conditions: [10] tested
[9] = test system: Enterococcus faecium; assay: MIC against clinical isolates (Table V, A and O); type: cell-based; conditions: Enterococcus faecium clinical isolates, (11) tested
[10] = test system: E. coli UBMS 88-2 (Sensitive); assay: MIC, agar dilution; type: cell-based; conditions: Escherichia coli; E. coli UBMS 88-2 (Sensitive); read-out: MIC
[11] = test system: N. gonorrhoeae 6418 (tetM); assay: MIC, agar dilution; type: cell-based; conditions: Neisseria gonorrhoeae
[12] = test system: Proteus spp. indole+; assay: MIC against clinical isolates (Table V, A and O); type: cell-based; conditions: Proteus spp. indole+ clinical isolates, (9) tested
[13] = test system: S. aureus UBMS 88-7 (tetK); assay: MIC, agar dilution; type: cell-based
[14] = test system: Morganella morganii; assay: MIC vs recent clinical and agricultural isolates (Table V, KK); type: cell-based; conditions: [16] tested
[15] = test system: Haemophilus influenzae; assay: MIC against clinical isolates (Table V, A and O); type: cell-based; conditions: (18) tested
[16] = test system: E. faecalis 12201; assay: MIC, agar dilution; type: cell-based
[17] = test system: Bacteroides spp.; assay: MIC against clinical isolates (Table V, A and O); type: cell-based; conditions: Bacteroides spp. clinical isolates, (15) tested
[18] = test system: Escherichia coli (Clinical); assay: MIC vs recent clinical and agricultural isolates (Table V, KK); type: cell-based; conditions: [30] tested
[19] = test system: N. gonorrhoeae IL 611 (Sensitive); assay: MIC, agar dilution; type: cell-based; conditions: Neisseria gonorrhoeae; N. gonorrhoeae IL 611 (Sensitive); read-out: MIC
[20] = test system: Enterococcus faecalis; assay: MIC against clinical isolates (Table V, A and O); type: cell-based; conditions: Enterococcus faecalis clinical isolates, (14) tested
[21] = test system: Neisseria gonorrhoeae; assay: MIC against clinical isolates (Table V, A and O); type: cell-based; conditions: Neisseria gonorrhoeae clinical isolates, (9) tested
[22] = test system: Klebsiella pneumoniae; assay: MIC against clinical isolates (Table V, A and O); type: cell-based; conditions: Klebsiella pneumoniae clinical isolates, (10) tested
[23] = test system: S. aureus NEMC 8769/89-4; assay: MIC, agar dilution (Table IA); type: cell-based; conditions: unit assumed
[24] = test system: Salmonella cholerasuis (Agricultural); assay: MIC vs recent clinical and agricultural isolates (Table V, KK); type: cell-based; conditions: [15] tested
[25] = test system: Clostridium spp.; type: cell-based; conditions: [9] tested
[26] = test system: S. aureus ROSE (MP); assay: MIC, agar dilution (Table IA); type: cell-based; conditions: unit assumed
[27] = test system: E. coli UBMS 90-5; assay: MIC, agar dilution (Table IA); type: cell-based; conditions: unit assumed
[28] = test system: E. coli J3272 TetC; assay: MIC, agar dilution (Table IA); type: cell-based; conditions: unit assumed
[29] = test system: S. aureus SMITH (sens); assay: In vivo antibacterial evaluation, acute lethal infection in mice; conditions: Intraveneous
[30] = test system: Salmonella spp. (Clinical); type: cell-based; conditions: [11] tested
[31] = test system: S. aureus IVES 1983 (meth. resistant); assay: MIC, agar dilution; type: cell-based; conditions: S. aureus IVES 1983; Table IA; unit assumed
[32] = test system: E. coli J2175; assay: MIC, agar dilution (Table IA); type: cell-based; conditions: unit assumed
[33] = test system: E. coli MC4100 TetB; assay: MIC, agar dilution (Table IA); type: cell-based; conditions: unit assumed
[34] = test system: E. coli J3272 Tet sens.; assay: MIC, agar dilution (Table IA); type: cell-based; conditions: unit assumed
[35] = test system: S. mariescens FDOR 8733; assay: MIC, agar dilution (Table IA); type: cell-based; conditions: unit assumed
[36] = test system: TetM S30 extract, derivative of E. coli MRE600 containing the tetM determinant; assay: E. coli in vitro transcription and protein translation, 35S-methionine incorporation (Table VIII)
[37] = test system: X. maltophilia NEMC 87210; assay: MIC, agar dilution (Table IA); type: cell-based; conditions: unit assumed
[38] = test system: Ps. acruginosa ATCC 27853; assay: MIC, agar dilution (Table IA); type: cell-based; conditions: unit assumed

## CN(C)c1ccc(O)c2c1C[C@H]1C[C@H]3[C@H](N(C)C)C(O)=C(C(N)=O)C(=O)[C@@]3(O)C(O)=C1C2=O [Compound O, 7-(Dimethylamino)-6-demethyl-6-deoxytetracycline hydrochloride (minocycline hydrochloride), reference compound]
[1]; hydrochloride
  MIC: 2 µg/mL
[1]; Staphylococcus aureus
  MIC: 4 µg/mL
[2]
  ED50: 3 mg/kg
[3]
  ED50: 1.7 mg/kg
[4]
  MIC (range over isolates): 0.03 to 32 µg/mL
[5]
  MIC (range over isolates): 0.5 to 2 µg/mL
[6]
  MIC Range: 0.12 to 32.00 µg/mL
[6]; read-out: MIC50
  MIC50: 0.25 µg/mL
[6]; read-out: MIC90
  MIC90: 16 µg/mL
[7]
  MIC (range over isolates): 0.25 to 8 µg/mL
[8]
  MIC (range over isolates): 0.03 to 16 µg/mL
[9]
  MIC Range: <0.015 to 16.00 µg/mL
[9]; read-out: MIC50
  MIC50: 8 µg/mL
[9]; read-out: MIC90
  MIC90: 16 µg/mL
[10]
  MIC: 0.5 µg/mL
[11]
  MIC: > 32 µg/mL
[12]; read-out: MIC50
  MIC50: 16 µg/mL
[12]; read-out: MIC90
  MIC90: > 32 µg/mL
[13]; Staphylococcus aureus
  MIC: 0.06 µg/mL
[14]
  MIC (range over isolates): 0.25 to 32 µg/mL
[15]
  MIC50: 0.12 µg/mL
  MIC90: 0.25 µg/mL
  MIC Range: 0.06 to 0.25 µg/mL
[16]; E. faecalis 12201, hydrochloride
  MIC: 8 µg/mL
[16]; Enterococcus faecalis, 12201, E. faecalis 12201, read-out: MIC
  MIC: 4 µg/mL
[17]
  MIC Range: >0.15 to 16.00 µg/mL
[17]; read-out: MIC50
  MIC50: 1 µg/mL
[17]; read-out: MIC90
  MIC90: 4 µg/mL
[18]
  MIC (range over isolates): 0.25 to 32 µg/mL
[19]
  MIC: 0.5 µg/mL
[20]
  MIC Range: <0.015 to 16.00 µg/mL
[20]; read-out: MIC50
  MIC50: 4 µg/mL
[20]; read-out: MIC90
  MIC90: 16 µg/mL
[21]; read-out: MIC50
  MIC50: 0.25 µg/mL
[21]; read-out: MIC90
  MIC90: > 32 µg/mL
[22]; read-out: MIC50
  MIC50: 1 µg/mL
[22]; read-out: MIC90
  MIC90: 4 µg/mL

## CN(C)CC(=O)Nc1cc(N(C)C)c2c(c1O)C(=O)C1=C(O)[C@]3(O)C(=O)C(C(N)=O)=C(O)[C@@H](N(C)C)C3CC1C2.Cl.Cl (stereo partly drawn) [KK, [4S-(4alpha,12aalpha)]-4,7-Bis(dimethylamino)-9-[[(dimethylamino)acetyl]amino]-1,4,4a,5,5a,6,11,12a-octahydro-3,10,12,12a-tetrahydroxy-1,11-dioxo-2-naphthacenecarboxamide dihydrochloride]
[1]; S. aureus UBMS 90-1 TetM, Table IA, unit assumed
  Antibacterial activity (MIC): 0.25 µg/mL
[23]
  Antibacterial activity (MIC): 0.06 µg/mL
[24]
  MIC (range over isolates): 0.5 to 16 µg/mL
[4]
  MIC (range over isolates): 0.25 to 8 µg/mL
[25]
  MIC (range over isolates): 0.015 to 0.12 µg/mL
[5]
  MIC (range over isolates): 0.5 to 2 µg/mL
[26]
  Antibacterial activity (MIC): 1 µg/mL
[27]
  Antibacterial activity (MIC): 0.25 µg/mL
[28]
  Antibacterial activity (MIC): 1 µg/mL
[29]
  ED50: 0.68 mg/kg
[30]
  MIC (range over isolates): 0.25 to 0.5 µg/mL
[31]
  Antibacterial activity (MIC): 1 µg/mL
[32]
  Antibacterial activity (MIC): 0.25 µg/mL
[7]
  MIC (range over isolates): 0.06 to 0.5 µg/mL
[8]
  MIC (range over isolates): 0.03 to 0.12 µg/mL
[33]
  Antibacterial activity (MIC): 0.25 µg/mL
[13]; S. aureus UBMS 88-7 TetK, Table IA, unit assumed
  Antibacterial activity (MIC): 0.25 µg/mL
[34]
  Antibacterial activity (MIC): 0.12 µg/mL
[14]
  MIC (range over isolates): 0.5 to 4 µg/mL
[35]
  Antibacterial activity (MIC): 2 µg/mL
[36]; 0.03 mg/ml
  % INHIBITION TetM S30: 75%
[36]; 0.06 mg/ml
  % INHIBITION TetM S30: 89%
[36]; 0.5 mg/ml
  % INHIBITION TetM S30: 96%
[36]; 1.0 mg/ml
  % INHIBITION TetM S30: 95%
[16]; Enterococcus 12201, Table IA, unit assumed
  Antibacterial activity (MIC): 0.12 µg/mL
[37]
  Antibacterial activity (MIC): 0.25 µg/mL
[18]
  MIC (range over isolates): 0.12 to 4 µg/mL
[38]
  Antibacterial activity (MIC): 4 µg/mL
